Experimental data published in PMC3489161 (Pharmaceutical research, 2011).
Several values for one entry are separate records, joined by “and”; a condition that tells them apart may be missing. Identical values can stand only once. Entries after “also recorded” stand apart in the source; their conditions may differ.

Assays:
[1] = 14C-lapatinib distribution after intravenous dosing; format: in vivo, mice; conditions: 10 mg/kg i.v., 30 min
[2] = due to active efflux transport at the BBB; cited from earlier work
[3] = tested on: brain metastases of HER2+ breast cancer; conditions: monotherapy; cited from earlier work
[4] = tested on: 231-BR-HER2 lapatinib-treated lines and 231-BR-HER2 non-treated lines; assay: Clonogenic assay of ex vivo cultures; format: cell-based, human; conditions: 4 μM lapatinib, stained on day 12
[5] = tested on: HER2+ brain metastases; conditions: cited from earlier work
[6] = cited from earlier work
[7] = tested on: HER2; assay: Western blot of HER2 expression in ex vivo cultures; format: cell-based, human; conditions: 100 mg/kg p.o. twice daily for 24 days
[8] = tested on: 231-BR-HER2; conditions: read-out: IC50 for inhibition of 231-BR-HER2 proliferation in vitro; cited from earlier work
[9] = female, NuNu, mouse, in vivo
[10] = mice; cited from earlier work
[11] = tested on: 231-BR-HER2 lapatinib-treated lines and 231-BR-HER2 non-treated lines; assay: Cell viability; format: cell-based, human; conditions: 8 or 10 μM lapatinib, 72 hours
[12] = 14C-lapatinib radiochemical integrity in plasma and tissues by HPLC; format: in vivo, mice

- Average brain metastasis concentration less than in peripheral tissues [1]: 1-2 orders of magnitude
- Concentration in some brain metastases as % of that in peripheral lesions [9]: ~50%
- Share of brain metastases with elevated 14C-lapatinib delivery [9]: > 85%
- Calculated % dose to brain ([9]; po, 100 mg/kg): 0.0025%
- Plasma 14C tracer confirmed as intact 14C-lapatinib ([12]; 30 min after 10 mg/kg i.v.): > 98%
- Tracer intact in plasma and tissues by HPLC ([12]; 2 hours after oral administration, 100 mg/kg): > 92%
Compound: CS(=O)(=O)CCNCc1ccc(-c2ccc3ncnc(Nc4ccc(OCc5cccc(F)c5)c(Cl)c4)c3c2)o1 [lapatinib, N-{3-chloro-4-[(3-fluorobenzyl)oxy]phenyl}-6-[5-({[2-(methylsulfonyl)ethyl]amino}methyl)-2-furyl]-4-quinazolinamine]
- Brain uptake as % of plasma [2]: < 10%
- Patients achieving an objective response [3]: 6%
- Patients experiencing a >20% reduction in lesion volume [3]: 21%
- Inhibitory effect in clonogenic assays [4]: comparable between lapatinib- and vehicle-treated cultures
- Reduction in formation/number of large brain metastases ([5]; mice, same dose and tumor model): ~50% and 50-53%
- Number of micrometastases ([5]; mice): no change
- Extent of phosphorylated HER2 staining within HER2+ brain metastases ([5]; treatment initiated early): decreased
- Volume of distribution [6]: 9.5 L/kg
- HER2 expression throughout in vivo treatment and ex vivo culture [7]: maintained
- IC50 [8]: 8 µM
- Plasma half-life [10]: 4 to 6 h
- Sensitivity of ex vivo cell lines to lapatinib, viability by MTT [11]: sensitive to lapatinib inhibition; also recorded: remain sensitive to lapatinib in vitro
